Results reported in patent US11447480B2, “Compound exhibiting enteropeptidase inhibitory activity” (LG CHEM, LTD., priority 2018, dated 2022).

Molecular target: Recombinant Human Enteropeptidase (Homo sapiens (Human), UniProt P98073)
Assay: Enteropeptidase Inhibition Assay
Type: biochemical
Details: substrate Acetyl-Asp-Asp-Asp-Asp-Lys-AFC 30 μM, 30° C., 1 hour; Ki calculated from IC50 using Cheng-Prusoff equation
Protocol: Enteropeptidase Inhibition Assay
The inhibitory activity of the enteropeptidase inhibitor synthesized using the purified Recombinant Human Enteropeptidase and the substrate Acetyl-Asp-Asp-Asp-Asp-Lys-AFC (BioVision) was measured. 7.2 ng/mL of Enteropeptidase diluted with a buffer (20 mM Tris, 50 mM NaCl, pH 7.5) in a 96 well plate (Costar), 30 μM of Acetyl-Asp-Asp-Asp-Asp-Lys-AFC, several concentrations of Enteropeptidase inhibitors (1% DMSO concentration) were dispensed such that a final volume was 100 μL, and then the enzyme reaction was carried out at 30° C. for 1 hour. At this time, 1% DMSO, a substrate and Enteropeptidase instead of the compound were dispensed onto positive control wells, and 1% DMSO and a substrate were dispensed onto negative control wells. The enzyme reaction was […] using an excitation wavelength of 380 nm and an emission wavelength of 500 nm in a fluorescence spectrometer, and then the rate of increase in fluorescence (milli-units per min) between 20 and 60 minutes was measured.
The fluorescence measurement values reduced by the inhibitor diluted at each concentration were converted into relative values % of the positive control group (100% reactivity) and the negative control group (0% reactivity), and used to calculate IC50 values. IC50 is the concentration of the inhibitor that inhibits the enzyme activity by 50%, and was calculated using PRISM (GraphPad). Ki values were calculated from the IC50 values using Cheng-Prusoff equation.

Chain of Recombinant Human Enteropeptidase (P98073 whole entry): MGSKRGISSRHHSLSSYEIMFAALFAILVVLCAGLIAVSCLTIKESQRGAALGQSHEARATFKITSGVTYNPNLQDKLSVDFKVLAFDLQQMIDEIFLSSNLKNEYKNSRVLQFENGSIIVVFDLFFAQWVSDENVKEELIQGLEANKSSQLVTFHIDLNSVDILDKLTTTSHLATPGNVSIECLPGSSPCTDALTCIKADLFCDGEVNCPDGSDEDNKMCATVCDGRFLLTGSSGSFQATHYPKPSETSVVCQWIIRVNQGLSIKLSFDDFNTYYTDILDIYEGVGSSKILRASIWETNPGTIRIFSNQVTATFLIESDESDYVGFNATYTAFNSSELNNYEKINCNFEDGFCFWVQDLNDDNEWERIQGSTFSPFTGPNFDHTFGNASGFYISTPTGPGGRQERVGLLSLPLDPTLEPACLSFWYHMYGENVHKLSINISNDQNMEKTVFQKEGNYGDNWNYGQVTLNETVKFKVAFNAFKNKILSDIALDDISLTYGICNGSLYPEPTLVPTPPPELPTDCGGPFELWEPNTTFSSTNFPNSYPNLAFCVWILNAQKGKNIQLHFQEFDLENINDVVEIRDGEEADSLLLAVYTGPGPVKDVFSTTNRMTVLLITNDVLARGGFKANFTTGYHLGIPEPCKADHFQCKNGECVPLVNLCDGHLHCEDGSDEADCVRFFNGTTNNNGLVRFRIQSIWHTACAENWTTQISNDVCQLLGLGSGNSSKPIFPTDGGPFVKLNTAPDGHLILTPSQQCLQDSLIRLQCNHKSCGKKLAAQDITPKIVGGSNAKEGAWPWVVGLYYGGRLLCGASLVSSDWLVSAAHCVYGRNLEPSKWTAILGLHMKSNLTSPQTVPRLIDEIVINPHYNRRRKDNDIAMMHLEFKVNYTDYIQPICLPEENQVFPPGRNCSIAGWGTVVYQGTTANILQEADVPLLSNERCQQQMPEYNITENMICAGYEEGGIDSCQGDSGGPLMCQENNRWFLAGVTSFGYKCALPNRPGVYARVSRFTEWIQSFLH

Ki [nM] | Compound
7.4 | N=C(N)c1ccc(OC(=O)c2ccc3nc(N4CCC(C(=O)O)CC4)sc3c2)cc1 [Example 58, 1-(6-((4-Carbamimidoylphenoxy)carbonyl)benzo[d]thiazol-2-yl)piperidine-4-carboxylic Acid]
14 | COC(=O)CCNc1nc2ccc(C(=O)Oc3ccc(C(=N)N)cc3)cc2s1 [Example 59, 4-Carbamimidoylphenyl 2-((3-methoxy-3-oxopropyl)amino)benzo[d]thiazole-6-carboxylate]
10 | COC(=O)CCN(C)c1nc2ccc(C(=O)Oc3ccc(C(=N)N)cc3)cc2s1 [Example 60, 4-Carbamimidoylphenyl 2-((3-methoxy-3-oxopropyl)(methyl)amino)benzo[d]thiazole-6-carboxylate]
10 | CCN(CCC(=O)OC)c1nc2ccc(C(=O)Oc3ccc(C(=N)N)cc3)cc2s1 [Example 61, 4-Carbamimidoylphenyl 2-(ethyl(3-methoxy-3-oxopropyl)amino)benzo[d]thiazole-6-carboxylate]
4.3 | CN(CCC(=O)O)c1nc2ccc(C(=O)Oc3ccc(C(=N)N)cc3)cc2s1 [Example 62, 3-((6-((4-Carbamimidoylphenoxy)carbonyl)benzo[d]thiazol-2-yl)(methyl)amino)propanoic Acid]
13 | COC(=O)CCCN(C)c1nc2ccc(C(=O)Oc3ccc(C(=N)N)cc3)cc2s1 [Example 63, 4-Carbamimidoylphenyl 2-((4-methoxy-4-oxobutyl)(methyl)amino)benzo[d]thiazole-6-carboxylate]
6.4 | CN(CCCC(=O)O)c1nc2ccc(C(=O)Oc3ccc(C(=N)N)cc3)cc2s1 [Example 64, 4-((6-((4-Carbamimidoylphenoxy)carbonyl)benzo[d]thiazol-2-yl)(methyl)amino)butanoic Acid]
5.7 | N=C(N)c1ccc(OC(=O)c2ccc3nc(NCCC(=O)O)sc3c2)cc1 [Example 65, 3-((6-((4-Carbamimidoylphenoxy)carbonyl)benzo[d]thiazol-2-yl)amino)propanoic Acid]
4.8 | CCN(CCC(=O)O)c1nc2ccc(C(=O)Oc3ccc(C(=N)N)cc3)cc2s1 [Example 66, 3-((6-((4-Carbamimidoylphenoxy)carbonyl)benzo[d]thiazol-2-yl)(ethyl)amino)propanoic Acid]
19 | COC(=O)C(C)(C)CNc1nc2ccc(C(=O)Oc3ccc(C(=N)N)cc3)cc2s1 [Example 67, 4-Carbamimidoylphenyl 2-((3-methoxy-2,2-dimethyl-3-oxopropyl)amino)benzo[d]thiazole-6-carboxylate]
6 | COC(=O)C(C)(C)CN(C)c1nc2ccc(C(=O)Oc3ccc(C(=N)N)cc3)cc2s1 [Example 68, 4-Carbamimidoylphenyl 2-((3-methoxy-2,2-dimethyl-3-oxopropyl)(methyl)amino)benzo[d]thiazole-6-carboxylate]
21 | CCN(CC(C)(C)C(=O)OC)c1nc2ccc(C(=O)Oc3ccc(C(=N)N)cc3)cc2s1 [Example 69, 4-Carbamimidoylphenyl 2-(ethyl(3-methoxy-2,2-dimethyl-3-oxopropyl)amino)benzo[d]thiazole-6-carboxylate]
3.5 | CCN(CC(C)(C)C(=O)OC)c1nc2ccc(C(=O)Oc3ccc(C(=N)N)cc3F)cc2s1 [Example 70, 4-Carbamimidoyl-2-fluorophenyl 2-(ethyl(3-methoxy-2,2-dimethyl-3-oxopropyl)amino)benzo[d]thiazole-6-carboxylate]
1.1 | COC(=O)CCCN(C)c1nc2ccc(C(=O)Oc3ccc(C(=N)N)cc3F)cc2s1 [Example 71, 4-Carbamimidoyl-2-fluorophenyl 2-((4-methoxy-4-oxobutyl)(methyl)amino)benzo[d]thiazole-6-carboxylate]
1.3 | COC(=O)CCN(C)c1nc2ccc(C(=O)Oc3ccc(C(=N)N)cc3F)cc2s1 [Example 72, 4-Carbamimidoyl-2-fluorophenyl 2-((3-methoxy-3-oxopropyl)(methyl)amino)benzo[d]thiazole-6-carboxylate]
0.89 | CC(C)(CNc1nc2ccc(C(=O)Oc3ccc(C(=N)N)cc3)cc2s1)C(=O)O [Example 73, 3-((6-((4-Carbamimidoylphenoxy)carbonyl)benzo[d]thiazol-2-yl)amino)-2,2-dimethylpropanoic Acid]
8.9 | CCN(CC(C)(C)C(=O)O)c1nc2ccc(C(=O)Oc3ccc(C(=N)N)cc3)cc2s1 [Example 74, 3-((6-((4-Carbamimidoylphenoxy)carbonyl)benzo[d]thiazol-2-yl)(ethyl) Amino)-2,2-dimethylpropanoic Acid]
0.7 | CCN(CC(C)(C)C(=O)O)c1nc2ccc(C(=O)Oc3ccc(C(=N)N)cc3F)cc2s1 [Example 75, 3-((6-((4-Carbamimidoyl-2-fluorophenoxy)carbonyl)benzo[d]thiazol-2-yl)(ethyl)amino)-2,2-dimethyl Propanoic Acid]
0.57 | CN(CCCC(=O)O)c1nc2ccc(C(=O)Oc3ccc(C(=N)N)cc3F)cc2s1 [Example 76, 4-((6-((4-Carbamimidoyl-2-fluorophenoxy)carbonyl)benzo[d]thiazol-2-yl)(methyl)amino)butanoic Acid]
0.57 | CN(CCC(=O)O)c1nc2ccc(C(=O)Oc3ccc(C(=N)N)cc3F)cc2s1 [Example 77, 3-((6-((4-Carbamimidoyl-2-fluorophenoxy)carbonyl)benzo[d]thiazol-2-yl)(methyl) Amino)propanoic Acid]
23 | N=C(N)c1ccc(OC(=O)c2ccc3nc(N4CCC(C(=O)Nc5ccccc5)CC4)sc3c2)cc1 [Example 80, 4-Carbamimidoylphenyl 2-(4-(phenylcarbamoyl)piperidin-1-yl)benzo[d]thiazole-6-carboxylate]
1.9 | N=C(N)c1ccc(OC(=O)c2ccc3nc(N4CCC(NC(=O)c5ccccc5)CC4)sc3c2)c(F)c1 [Example 82, 4-Carbamimidoyl-2-fluorophenyl 2-(4-benzoamidopiperidin-1-yl)benzo[d]thiazole-6-carboxylate]
9.7 | N=C(N)c1ccc(OC(=O)c2ccc3nc(N4CCC(NC(=O)c5ccccc5)CC4)sc3c2)cc1 [Example 83, 4-Carbamimidoylphenyl 2-(4-benzoamidopiperidin-1-yl)benzo[d]thiazole-6-carboxylate]
2.2 | CCN(CCC(=O)OC)c1nc2ccc(C(=O)Oc3ccc(C(=N)N)cc3F)cc2s1 [Example 84, 4-Carbamimidoyl-2-fluorophenyl 2-(ethyl(3-methoxy-3-oxopropyl)amino)benzo[d]thiazole-6-carboxylate]
0.55 | CCN(CCC(=O)O)c1nc2ccc(C(=O)Oc3ccc(C(=N)N)cc3F)cc2s1 [Example 85, 3-((6-((4-Carbamimidoyl-2-fluorophenoxy)carbonyl)benzo[d]thiazol-2-yl)(ethyl)amino)propanoic Acid]
10 | CN(CC(C)(C)C(=O)O)c1nc2ccc(C(=O)Oc3ccc(C(=N)N)cc3)cc2s1 [Example 86, 3-((6-((4-Carbamimidoylphenoxy)carbonyl)benzo[d]thiazol-2-yl)(methyl)amino)-2,2-dimethylpropanoic Acid]
4 | CCn1/c(=N/CC(C)(C)C(=O)OC)sc2cc(C(=O)Oc3ccc(C(=N)N)cc3F)ccc21 [Example 87, 4-Carbamimidoyl-2-fluorophenyl (Z)-3-ethyl-2-((3-methoxy-2,2-dimethyl-3-oxopropyl)imino)-2,3-dihydrobenzo[d]thiazole-6-carboxylate]
0.16 | CCn1/c(=N/CC(C)(C)C(=O)O)sc2cc(C(=O)Oc3ccc(C(=N)N)cc3F)ccc21 [Example 88, (Z)-3-((6-((4-Carbamimidoyl-2-fluorophenoxy)carbonyl)-3-ethylbenzo[d]thiazole-2(3H)-ylidine)amino)-2,2-dimethylpropanoic Acid]
